Assay results published in the supplement of paper PMC4932681.

Assays:
[1] = system: T-47D Tam1; experiment: relative IC50 (midpoint of fitted logistic curve, plateau may be below 50% inhibition; CellTiter-Glo viability); higher = less potent; settings: 4-OH-tamoxifen in medium 1 µM; 72 h
In short: (§1)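 Breast cancer cell lines and their resistant derivatives were seeded into 384-well plates containing library drugs at five concentrations across a 10 000-fold range, with resistant lines kept in medium with 1 μM of the selecting drug. After 72 h at 37 °C, CellTiter-Glo viability was read on a PHERAstar and normalised to vehicle-only and positive controls. Logistic dose–response fits in the Breeze pipeline gave drug sensitivity score, relative IC50 (curve midpoint) and top-dose inhibition.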

[2] = system: BT-474 Tam2; experiment: as above; settings: 4-OH-tamoxifen in medium 1 µM; 72 h
In short: as §1

[3] = system: BT-474 Tam1; experiment: as above; settings: 4-OH-tamoxifen in medium 1 µM; 72 h
In short: as §1

[4] = system: MCF-7; experiment: as above; settings: 72 h
In short: as §1

[5] = system: ZR-75-1 Tam1; experiment: as above; settings: 4-OH-tamoxifen in medium 1 µM; 72 h
In short: as §1

[6] = system: T-47D Tam2; experiment: as above; settings: 4-OH-tamoxifen in medium 1 µM; 72 h
In short: as §1

[7] = system: T-47D; experiment: as above; settings: 72 h
In short: as §1

[8] = system: ZR-75-1; experiment: as above; settings: 72 h
In short: as §1

[9] = system: ZR-75-1 Tam2; experiment: as above; settings: 4-OH-tamoxifen in medium 1 µM; 72 h
In short: as §1

[10] = system: BT-474; experiment: as above; settings: 72 h
In short: as §1

[11] = system: MCF-7 Tam1; experiment: as above; settings: 4-OH-tamoxifen in medium 1 µM; 72 h
In short: as §1

[12] = system: T-47D Tam1; experiment: drug sensitivity score (DSS) (DSS (dimensionless)); higher = more sensitive; extreme values may be limits of the assay; settings: 4-OH-tamoxifen in medium 1 µM; 72 h
In short: as §1

[13] = system: BT-474 Tam2; experiment: as above; settings: 4-OH-tamoxifen in medium 1 µM; 72 h
In short: as §1

[14] = system: BT-474 Tam1; experiment: as above; settings: 4-OH-tamoxifen in medium 1 µM; 72 h
In short: as §1

[15] = system: MCF-7; experiment: as above; settings: 72 h
In short: as §1

[16] = system: ZR-75-1 Tam1; experiment: as above; settings: 4-OH-tamoxifen in medium 1 µM; 72 h
In short: as §1

[17] = system: T-47D Tam2; experiment: as above; settings: 4-OH-tamoxifen in medium 1 µM; 72 h
In short: as §1

[18] = system: T-47D; experiment: as above; settings: 72 h
In short: as §1

[19] = system: ZR-75-1; experiment: as above; settings: 72 h
In short: as §1

[20] = system: ZR-75-1 Tam2; experiment: as above; settings: 4-OH-tamoxifen in medium 1 µM; 72 h
In short: as §1

[21] = system: BT-474; experiment: as above; settings: 72 h
In short: as §1

[22] = system: MCF-7 Tam1; experiment: as above; settings: 4-OH-tamoxifen in medium 1 µM; 72 h
In short: as §1

Structure (SMILES) | relative IC50 [1] | relative IC50 [2] | relative IC50 [3] | relative IC50 ([4]; 4-OH-tamoxifen in medium 0 µM) | relative IC50 ([4]; 4-OH-tamoxifen in medium 1 µM) | relative IC50 [6] | relative IC50 ([7]; 4-OH-tamoxifen in medium 0 µM) | relative IC50 ([7]; 4-OH-tamoxifen in medium 1 µM) | relative IC50 ([10]; 4-OH-tamoxifen in medium 0 µM) | relative IC50 ([10]; 4-OH-tamoxifen in medium 1 µM) | relative IC50 [11] | relative IC50 [5] | relative IC50 ([8]; 4-OH-tamoxifen in medium 0 µM) | relative IC50 ([8]; 4-OH-tamoxifen in medium 1 µM) | relative IC50 [9] | drug sensitivity score [12] | drug sensitivity score [13] | drug sensitivity score [14] | drug sensitivity score ([15]; 4-OH-tamoxifen in medium 0 µM) | drug sensitivity score ([15]; 4-OH-tamoxifen in medium 1 µM) | drug sensitivity score [16] | drug sensitivity score [17] | drug sensitivity score ([18]; 4-OH-tamoxifen in medium 0 µM) | drug sensitivity score ([18]; 4-OH-tamoxifen in medium 1 µM) | drug sensitivity score ([19]; 4-OH-tamoxifen in medium 0 µM) | drug sensitivity score ([19]; 4-OH-tamoxifen in medium 1 µM) | drug sensitivity score [20] | drug sensitivity score ([21]; 4-OH-tamoxifen in medium 0 µM) | drug sensitivity score ([21]; 4-OH-tamoxifen in medium 1 µM) | drug sensitivity score [22]
NC(=O)NO [Hydroxyurea] | > 100 µM | > 100 µM | > 100 µM | > 100 µM |  | > 100 µM | > 100 µM | > 100 µM | > 100 µM |  | > 100 µM | > 100 µM | > 100 µM | > 100 µM | > 100 µM | 0 | 0 | 0 | 0 | 0 | 0 | 0 | 0 | 0 | 0 | 0 | 0 | 0 | 0.154 | 0
CC(C)n1nc(-c2ccc3oc(N)nc3c2)c2c(N)ncnc21 [INK128] | 0.00291 µM | 0.0302 µM | 0.0209 µM | 0.00736 µM | 0.00762 µM | 0.00749 µM | 0.0116 µM | 0.0119 µM | 0.0275 µM | 0.0471 µM | 0.0114 µM | 0.00481 µM | 0.00613 µM | 0.00656 µM | 0.00649 µM | 16.9 | 7.32 | 13.2 | 18.9 | 13.6 | 15.1 | 8.98 | 15.4 | 8.51 | 16.1 | 13.6 | 17.5 | 5.72 | 9.54 | 7.07
O=P(O)(NCCCl)NCCCl [Ifosfamide mustard] | > 10 µM | > 10 µM | > 10 µM | > 10 µM | > 10 µM | > 10 µM | > 10 µM | > 10 µM | > 10 µM | > 10 µM | > 10 µM | > 10 µM | > 10 µM | > 10 µM | > 10 µM | 0 | 0 | 0 | 0 | 0 | 0 | 0 | 0 | 0 | 0 | 0 | 0 | 0 | 0 | 0
O=P1(NCCCl)OCCCN1CCCl (configuration not stated) [Ifosfamide] | > 10 µM | > 10 µM | > 10 µM | > 10 µM |  | > 10 µM | > 10 µM | > 10 µM | > 10 µM | > 10 µM | > 10 µM | > 10 µM | > 10 µM | > 10 µM | > 10 µM | 0 | 0 | 0 | 0 | 0.24 | 0 | 0 | 0 | 0 | 0 | 0 | 0 | 0 | 0 | 0

Continued, in another order:

relative IC50 [1] | relative IC50 [2] | relative IC50 [3] | relative IC50 ([4]; 4-OH-tamoxifen in medium 0 µM) | relative IC50 ([4]; 4-OH-tamoxifen in medium 1 µM) | relative IC50 [6] | relative IC50 ([7]; 4-OH-tamoxifen in medium 0 µM) | relative IC50 ([7]; 4-OH-tamoxifen in medium 1 µM) | relative IC50 ([10]; 4-OH-tamoxifen in medium 0 µM) | relative IC50 ([10]; 4-OH-tamoxifen in medium 1 µM) | relative IC50 [11] | Structure (SMILES) | relative IC50 [5] | relative IC50 ([8]; 4-OH-tamoxifen in medium 0 µM) | relative IC50 ([8]; 4-OH-tamoxifen in medium 1 µM) | relative IC50 [9] | drug sensitivity score [12] | drug sensitivity score [13] | drug sensitivity score [14] | drug sensitivity score ([15]; 4-OH-tamoxifen in medium 0 µM) | drug sensitivity score ([15]; 4-OH-tamoxifen in medium 1 µM) | drug sensitivity score [16] | drug sensitivity score [17] | drug sensitivity score ([18]; 4-OH-tamoxifen in medium 0 µM) | drug sensitivity score ([18]; 4-OH-tamoxifen in medium 1 µM) | drug sensitivity score ([19]; 4-OH-tamoxifen in medium 0 µM) | drug sensitivity score ([19]; 4-OH-tamoxifen in medium 1 µM) | drug sensitivity score [20] | drug sensitivity score ([21]; 4-OH-tamoxifen in medium 0 µM) | drug sensitivity score ([21]; 4-OH-tamoxifen in medium 1 µM) | drug sensitivity score [22]
8.36 µM | > 50 µM | 19.1 µM | 7 µM | > 50 µM | 13.8 µM | 20 µM | 30.1 µM | > 50 µM | 17.3 µM | > 50 µM | C[C@@H]1C=C2C(=O)O[C@@H]3CC[C@H](C1)[C@]23O [Galiellalactone] | > 50 µM | > 50 µM | > 50 µM | > 50 µM | 3.53 | 0 | 2.19 | 6.75 | 0.391 | 0 | 2.32 | 2.52 | 1.56 | 0 | 0 | 0 | 0 | 2.65 | 0
0.235 µM | 0.494 µM | 1.25 µM | 2.79 µM | 0.943 µM | 1.34 µM | 2.95 µM | 3.59 µM | 0.563 µM | 0.518 µM | 1.91 µM | COC1=C2C[C@@H](C)C[C@H](OC)[C@H](O)[C@@H](C)/C=C(\C)[C@H](OC(N)=O)[C@@H](OC)/C=C\C=C(/C)C(=O)NC(=CC1=O)C2=O [Geldanamycin] | 1.12 µM | 1.34 µM | 1.07 µM | 1.44 µM | 14.8 | 12.9 | 8.85 | 5.35 | 9.55 | 7.66 | 6.85 | 4.34 | 3.67 | 6.31 | 9.2 | 6.52 | 9.69 | 10.8 | 4.81
0.123 µM | 0.371 µM | 0.394 µM | 0.191 µM | 0.187 µM | 0.313 µM | 0.0974 µM | 0.329 µM | 0.309 µM | 0.349 µM | 0.331 µM | CC(=O)[C@]1(O)Cc2c(O)c3c(c(O)c2[C@@H](O[C@H]2C[C@H](N)[C@H](O)[C@H](C)O2)C1)C(=O)c1ccccc1C3=O [Idarubicin] | 0.127 µM | 0.12 µM | 0.111 µM | 0.086 µM | 8.94 | 3.03 | 3.94 | 6.65 | 5.56 | 5.45 | 2.4 | 8.26 | 3.11 | 6.29 | 5.81 | 7.63 | 4.38 | 4.91 | 1.86
